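These data come from cells grown in 96-well plates and exposed to compound for 48 hours at five concentrations. GI50: concentration for 50% inhibition of growth.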 Calls of active or inactive are those of the source. Cut-off read from the data, not from the text of the source: active = GI50 up to about 1.1 µM and inactive = higher.
Legend:
Test in all cases: DTP human tumour cell line panel, 48 h
SNB-75 = test system: SNB-75
NCI-H460 = test system: NCI-H460
786-0 = test system: 786-0
SF-268 = test system: SF-268
SR = test system: SR
TK-10 = test system: TK-10
SK-MEL-2 = test system: SK-MEL-2
EKVX = test system: EKVX
SF-539 = test system: SF-539
UO-31 = test system: UO-31
RXF 393 = test system: RXF 393
K562 = test system: K562
HOP-92 = test system: HOP-92
Malme-3M = test system: Malme-3M
HCT-15 = test system: HCT-15
IGROV-1 = test system: IGROV-1
M14 = test system: M14
NCI-H226 = test system: NCI-H226
RPMI-8226 = test system: RPMI-8226
HCC 2998 = test system: HCC 2998

## NCCC1([N+](=O)[O-])C=CN=CC1 (stereo not given)
SNB-75
  GI50: 6.98 µM (inactive)
NCI-H460
  GI50: > 100 µM (inactive)
786-0
  GI50: > 100 µM (inactive)
SF-268
  GI50: > 100 µM (inactive)
SR
  GI50: > 100 µM (inactive)
TK-10
  GI50: > 100 µM (inactive)
SK-MEL-2
  GI50: > 100 µM (inactive)
EKVX
  GI50: > 100 µM (inactive)
SF-539
  GI50: > 100 µM (inactive)
UO-31
  GI50: > 100 µM (inactive)
RXF 393
  GI50: > 100 µM (inactive)
K562
  GI50: > 100 µM (inactive)
HOP-92
  GI50: < 0.01 µM (active)
Malme-3M
  GI50: > 100 µM (inactive)
HCT-15
  GI50: > 100 µM
IGROV-1
  GI50: > 100 µM (inactive)
M14
  GI50: > 100 µM (inactive)
NCI-H226
  GI50: > 100 µM (inactive)
RPMI-8226
  GI50: > 100 µM (inactive)

## COC(=O)C1=C(\O)C[C@@]2(C)CC[C@@H](C(=O)OC)C2C/C=C\1C(=O)OC (stereo not given in full)
SNB-75
  GI50: > 100 µM (inactive)
NCI-H460
  GI50: > 100 µM (inactive)
786-0
  GI50: > 100 µM (inactive)
SF-268
  GI50: 70.5 µM (inactive)
SR
  GI50: 81.3 µM (inactive)
TK-10
  GI50: > 100 µM (inactive)
HCC 2998
  GI50: > 100 µM (inactive)
EKVX
  GI50: > 100 µM (inactive)
SF-539
  GI50: 19.7 µM (inactive)
UO-31
  GI50: 64 µM (inactive)
RXF 393
  GI50: 40.6 µM (inactive)
HOP-92
  GI50: > 100 µM (inactive)
Malme-3M
  GI50: > 100 µM (inactive)
HCT-15
  GI50: > 100 µM
IGROV-1
  GI50: > 100 µM (inactive)
M14
  GI50: > 100 µM (inactive)
NCI-H226
  GI50: 89.1 µM (inactive)
RPMI-8226
  GI50: 50.1 µM (inactive)

## O=C(Nc1ccccc1-c1n[nH]c(S)nc1=O)C(F)(F)F
SNB-75
  GI50: > 100 µM (inactive)
NCI-H460
  GI50: > 100 µM (inactive)
786-0
  GI50: > 100 µM (inactive)
SF-268
  GI50: > 100 µM (inactive)
SR
  GI50: > 100 µM (inactive)
TK-10
  GI50: > 100 µM (inactive)
HCC 2998
  GI50: > 100 µM (inactive)
SK-MEL-2
  GI50: > 100 µM (inactive)
EKVX
  GI50: > 100 µM (inactive)
SF-539
  GI50: > 100 µM (inactive)
UO-31
  GI50: > 100 µM (inactive)
RXF 393
  GI50: > 100 µM (inactive)
K562
  GI50: > 100 µM (inactive)
HOP-92
  GI50: > 100 µM (inactive)
Malme-3M
  GI50: > 100 µM (inactive)
HCT-15
  GI50: > 100 µM
IGROV-1
  GI50: > 100 µM (inactive)
M14
  GI50: > 100 µM (inactive)
NCI-H226
  GI50: > 100 µM (inactive)

## CCC(C)[C@@H](NC1=C(Cl)C(=O)c2c(O)ccc(O)c2C1=O)C(=O)OC (stereo not given in full)
SNB-75
  GI50: 7.26 µM (inactive)
NCI-H460
  GI50: 2.64 µM (inactive)
786-0
  GI50: 2.43 µM (inactive)
SF-268
  GI50: 3.7 µM (inactive)
SR
  GI50: 1.06 µM (active)
TK-10
  GI50: > 10 µM (inactive)
HCC 2998
  GI50: > 10 µM (inactive)
SK-MEL-2
  GI50: 4.2 µM (inactive)
EKVX
  GI50: 9.23 µM (inactive)
SF-539
  GI50: 4.08 µM (inactive)
K562
  GI50: 3.59 µM (inactive)
HOP-92
  GI50: > 10 µM (inactive)
Malme-3M
  GI50: 1.8 µM (inactive)
HCT-15
  GI50: 2.94 µM
IGROV-1
  GI50: 3.95 µM (inactive)
M14
  GI50: 2.31 µM (inactive)
NCI-H226
  GI50: 4.14 µM (inactive)
RPMI-8226
  GI50: 2.28 µM (inactive)

## O=C1CS(=O)(=O)C(c2cccc(Oc3ccccc3)c2)N1c1ccccc1 (stereo not given)
SNB-75
  GI50: 34.1 µM (inactive)
NCI-H460
  GI50: 18.7 µM (inactive)
786-0
  GI50: 17.8 µM (inactive)
SF-268
  GI50: 23.7 µM (inactive)
SR
  GI50: 19.9 µM (inactive)
TK-10
  GI50: 26.6 µM (inactive)
HCC 2998
  GI50: 16.9 µM (inactive)
SK-MEL-2
  GI50: 16.1 µM (inactive)
EKVX
  GI50: 16.4 µM (inactive)
SF-539
  GI50: 21.3 µM (inactive)
UO-31
  GI50: 29.9 µM (inactive)
RXF 393
  GI50: 19.3 µM (inactive)
K562
  GI50: 14.4 µM (inactive)
HOP-92
  GI50: 14.6 µM (inactive)
Malme-3M
  GI50: 20.5 µM (inactive)
HCT-15
  GI50: 22 µM
M14
  GI50: 18.7 µM (inactive)
NCI-H226
  GI50: 21.4 µM (inactive)

## O=[N+]([O-])c1ccc(-c2ccc(-c3csc(Nc4ccccn4)n3)o2)cc1
SNB-75
  GI50: > 100 µM (inactive)
NCI-H460
  GI50: > 10 µM (inactive)
SF-268
  GI50: 19.7 µM (inactive)
SR
  GI50: > 100 µM (inactive)
TK-10
  GI50: 26.9 µM (inactive)
HCC 2998
  GI50: > 100 µM (inactive)
SK-MEL-2
  GI50: > 100 µM (inactive)
UO-31
  GI50: > 100 µM (inactive)
K562
  GI50: 66.5 µM (inactive)
HOP-92
  GI50: > 100 µM (inactive)
Malme-3M
  GI50: 32.3 µM (inactive)
HCT-15
  GI50: 79.8 µM
IGROV-1
  GI50: > 100 µM (inactive)
M14
  GI50: 59.6 µM (inactive)
RPMI-8226
  GI50: > 100 µM (inactive)

## CN1CCOC1(C)CO (stereo not given)
SNB-75
  GI50: 28.6 µM (inactive)
NCI-H460
  GI50: > 100 µM (inactive)
786-0
  GI50: > 100 µM (inactive)
SF-268
  GI50: > 100 µM (inactive)
SR
  GI50: > 100 µM (inactive)
TK-10
  GI50: > 100 µM (inactive)
SK-MEL-2
  GI50: > 100 µM (inactive)
EKVX
  GI50: > 100 µM (inactive)
SF-539
  GI50: > 100 µM (inactive)
UO-31
  GI50: > 100 µM (inactive)
RXF 393
  GI50: > 100 µM (inactive)
K562
  GI50: > 100 µM (inactive)
HOP-92
  GI50: > 100 µM (inactive)
Malme-3M
  GI50: > 100 µM (inactive)
HCT-15
  GI50: > 100 µM
IGROV-1
  GI50: > 100 µM (inactive)
M14
  GI50: > 100 µM (inactive)
NCI-H226
  GI50: > 100 µM (inactive)
RPMI-8226
  GI50: > 100 µM (inactive)

## O=C(Nc1ccn(CCOC(=O)c2ccccc2)c(=O)n1)c1ccccc1
SNB-75
  GI50: > 100 µM (inactive)
NCI-H460
  GI50: > 100 µM (inactive)
786-0
  GI50: > 100 µM (inactive)
SF-268
  GI50: > 100 µM (inactive)
SR
  GI50: > 100 µM (inactive)
TK-10
  GI50: > 100 µM (inactive)
SK-MEL-2
  GI50: > 100 µM (inactive)
EKVX
  GI50: > 100 µM (inactive)
SF-539
  GI50: > 100 µM (inactive)
UO-31
  GI50: > 100 µM (inactive)
RXF 393
  GI50: > 100 µM (inactive)
K562
  GI50: > 100 µM (inactive)
HOP-92
  GI50: > 100 µM (inactive)
Malme-3M
  GI50: > 100 µM (inactive)
HCT-15
  GI50: > 100 µM
IGROV-1
  GI50: > 100 µM (inactive)
M14
  GI50: > 100 µM (inactive)
NCI-H226
  GI50: > 100 µM (inactive)
RPMI-8226
  GI50: > 100 µM (inactive)

— ChEMBL document CHEMBL1201862, “PubChem BioAssay data set” (2004)
